Results reported in patent US20190330197A1, “SUBSTITUTED NAPHTHALENE DIIMIDES AND THEIR USE” (UCL Business PLC, priority 2015, published 2019).

Legend:
[1] = test system: Kras32 sequence from the promoter region of the kras gene; test: FRET quadruplex stabilisation assay, Kras32; assay type: binding; settings: compound at 1 μM, 60 mM potassium cacodylate buffer pH 7.4
From the text: (§1) The ability of the naphthalene diimide compounds to stabilize quadruplex DNA sequences was investigated using a fluorescence resonance energy transfer (FRET) assay modified to be used as a high-throughput screen in a 96-well format. Several quadruplex sequences were studied (including the human telomeric G-quadruplex DNA sequence 5′-FAM-d(GGG[TTAGGG]3)-TAMRA-3′ and the duplex sequence 5′-FAM-d[…]-HEG-[…]-TAMRA-3′ (HEG linker: [(—CH2—CH2—O—)6.
(§2) The labelled oligonucleotides have attached to them the donor fluorophore FAM: 6-carboxyfluorescein and the acceptor fluorophore TAMRA: 6-carboxytetramethylrhodamine. The FRET probe sequences were diluted from stock to the correct concentration (400 nM) in a 60 mM potassium cacodylate buffer (pH 7.4) and then annealed by heating to 85° C. for 10 min, followed by cooling to room temperature in the heating block. The compound was stored as a 10 mM stock solution in DMSO; final solutions (at 2× concentration) were prepared using 10 mM HCl in the initial 1:10 dilution, after which 60 mM potassium cacodylate buffer (pH 7.4) was used in all subsequent steps. The maximum HCl concentration in the reaction volume (at a ligand concentration of 20 μM) is thus 200 μM, well within the range of the buffer used. Relevant controls were also performed to check for interference with the assay. 96-Well plates (MJ Research, Waltham, Mass.) were prepared by aliquoting 50 μl of the annealed DNA into each well, followed by 50 μl of the compound solutions. Measurements were made on a DNA Engine Opticon (MJ Research) with excitation at 450-495 nm and detection at 515-545 nm. Fluorescence readings were taken at intervals of 0.5° C. in the range 30-100° C., with a constant temperature being maintained for 30 s prior to each reading to ensure a stable value. Final analysis of the data was carried out using a script written in the program Origin 7.0 (OriginLab Corp., Northampton, Mass.). The advanced curve-fitting function in Origin 7.0 was used for calculation of ΔTm values. All determinations were performed in triplicate or better. Esds in ΔTm are ±0.1° C.

[2] = test system: Bcl-2 sequence from the promoter region of the bcl-2 gene; test: FRET quadruplex stabilisation assay, Bcl-2; assay type: binding; settings: compound at 1 μM, 60 mM potassium cacodylate buffer pH 7.4
From the text: as §1, §2

MIA-PaCa2 cells = test: RNA-seq gene expression changes in treated MIA-PaCa2 cells; assay type: cell-based, human
Procedure: Cell lines were purchased from American Type Culture Collection (ATCC) and stored under liquid nitrogen. Cells were maintained in monolayer culture T75 (75 cm2 flasks) in humidified 5% CO2 atmosphere at 37° C. Cells were maintained in appropriate medium according to (ATCC) with necessary supplements including L-glutamine (Thermo Fisher Scientific Cat. No. 25030024), penicillin-streptomycin solution Hybrid-Max (Sigma Cat. No. P7539) and fetal bovine serum (FBS, Thermo Fisher Scientific Cat. No. 10270106). Cells were passaged at 80-90% confluence.
MIA-PaCa2 cells were seeded 48 hours prior to incubation, in MatTek 35 mm glass bottom dishes. Three incubation times for the compound 4c were examined: 0, 6 and 24 hrs. For RNA extraction cells (a maximum of 1×10^7 cells) were harvested by trypsinization following rinsing the cells twice in 1×PBS (without calcium chloride and magnesium chloride, purchased from Sigma Cat. No. D1408). After neutralising the medium with an equal volume of medium to trypsin cells were transferred to a sterile centrifuge tube for centrifugation for 4 minutes at 400 rpm at room temperate in order to pellet the cells. After removing the medium and trypsin following centrifugation RNA was extracted from the pellet of cells using the RNeasy Mini Kit by QIAGEN (Cat. no. 74104). RNA quality was checked by use of the NanoDrop 2000 Spectrophotometer, and a minimum quantity of ca 500 ng of RNA at >25 ng/μl concentration per replicate was verified.
RNA-Seq sequencing studies were performed by the UCL Genomics Facility using an Illumina NextSeq 500 instrument, and data obtained on RNA expression levels of all individual genes in the genomes of the cells analysed, relative to the control cells at 0 hr exposure. Four replicates were used for each time-point, thus a total of 12 individual genomes were analysed and statistics obtained for each time-point.
Data has been taken from RNA-seq data from treated MIA-PaCa2 cells, showing log-fold expression changes for genes selected from those showing the most significant down-regulation of expression as measured by RNA levels.

O=C1c2ccc3c4c(c(NCCN5CCCC5)cc(c24)C(=O)N1CCCN1CCOCC1)C(=O)N(CCCN1CCOCC1)C3=O [Compound 4c, 2,7-bis(3-morpholinopropyl)-4-((2-(pyrrolidin-1-yl)ethyl)amino)benzo[Imn][3,8]phenanthroline-1,3,6,8(2H,7H)-tetraone]
ΔTm Kras32 [1]: 9.6 °C
ΔTm Bcl-2 [2]: 13.3 °C
AVIL log-fold change relative to t = 0 hrs (MIA-PaCa2 cells; 4c at 6 hrs): 3.0
CBFA2T3 log-fold change relative to t = 0 hrs (MIA-PaCa2 cells; 4c at 6 hrs): −2.8
FLG log-fold change relative to t = 0 hrs (MIA-PaCa2 cells; 4c at 6 hrs): 4.0
ITGA1 log-fold change relative to t = 0 hrs (MIA-PaCa2 cells; 4c at 6 hrs): 4.5
ITGAM log-fold change relative to t = 0 hrs (MIA-PaCa2 cells; 4c at 6 hrs): 7.0
PRDM16 log-fold change relative to t = 0 hrs (MIA-PaCa2 cells; 4c at 6 hrs): −2.8
SHANK2 log-fold change relative to t = 0 hrs (MIA-PaCa2 cells; 4c at 6 hrs): −1.9
ST14 log-fold change relative to t = 0 hrs (MIA-PaCa2 cells; 4c at 6 hrs): 5.6
TP73 log-fold change relative to t = 0 hrs (MIA-PaCa2 cells; 4c at 6 hrs): −2.4
TREX1 log-fold change relative to t = 0 hrs (MIA-PaCa2 cells; 4c at 6 hrs): −8.3
ZNF469 log-fold change relative to t = 0 hrs (MIA-PaCa2 cells; 4c at 6 hrs): −3.4
AVIL log-fold change relative to t = 0 hrs (MIA-PaCa2 cells; 4c at 24 hrs): 0.5
CBFA2T3 log-fold change relative to t = 0 hrs (MIA-PaCa2 cells; 4c at 24 hrs): −2.8
FLG log-fold change relative to t = 0 hrs (MIA-PaCa2 cells; 4c at 24 hrs): 0.7
ITGA1 log-fold change relative to t = 0 hrs (MIA-PaCa2 cells; 4c at 24 hrs): 0.4
ITGAM log-fold change relative to t = 0 hrs (MIA-PaCa2 cells; 4c at 24 hrs): 2.6
PRDM16 log-fold change relative to t = 0 hrs (MIA-PaCa2 cells; 4c at 24 hrs): −3.5
SHANK2 log-fold change relative to t = 0 hrs (MIA-PaCa2 cells; 4c at 24 hrs): −2.0
ST14 log-fold change relative to t = 0 hrs (MIA-PaCa2 cells; 4c at 24 hrs): 2.5
TP73 log-fold change relative to t = 0 hrs (MIA-PaCa2 cells; 4c at 24 hrs): −1.2
TREX1 log-fold change relative to t = 0 hrs (MIA-PaCa2 cells; 4c at 24 hrs): −2.5
ZNF469 log-fold change relative to t = 0 hrs (MIA-PaCa2 cells; 4c at 24 hrs): −3.2
extent of gene expression changes (MIA-PaCa2 cells; treated MIA-PaCa2 cells): changes in gene expression in a comparatively small number of genes
